In patent US20250051344A1, “BIFUNCTIONAL SELECTIVE DEGRADERS OF SMARCA2 AND THERAPEUTIC USES THEREOF” (Nurix Therapeutics, Inc., priority 2023, published 2025):

How the values were obtained:
[1] = target: T1, SMARCA4 (Homo sapiens, UniProt P51532); experiment: Cellular degradation assay, SMARCA4 (Table 1); assay type: cell-based
T1 construct: endogenous in cells

[2] = target: T2, SMARCA2 (Homo sapiens, UniProt P51531); experiment: SMARCA2 Cellular Degradation Assay (Western blot analysis on Jess platform); assay type: cell-based; conditions: for DC50 / Dmax: cellular degradation; for Fold Selectivity SMARCA4/2: ratio DC50 SMARCA4 / DC50 SMARCA2
T2 construct: endogenous in cells
Method in brief: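 SMARCA2 remaining is given as percent of vehicle control, using actin-normalized, background-corrected electropherogram areas. Measurement was by Jess capillary immunoassay (anti-SMARCA2 with anti-β-actin) on 5 μg protein from RIPA/SDS lysates of tumor-derived cells.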

T1 sequence (P51532 whole entry, species assumed): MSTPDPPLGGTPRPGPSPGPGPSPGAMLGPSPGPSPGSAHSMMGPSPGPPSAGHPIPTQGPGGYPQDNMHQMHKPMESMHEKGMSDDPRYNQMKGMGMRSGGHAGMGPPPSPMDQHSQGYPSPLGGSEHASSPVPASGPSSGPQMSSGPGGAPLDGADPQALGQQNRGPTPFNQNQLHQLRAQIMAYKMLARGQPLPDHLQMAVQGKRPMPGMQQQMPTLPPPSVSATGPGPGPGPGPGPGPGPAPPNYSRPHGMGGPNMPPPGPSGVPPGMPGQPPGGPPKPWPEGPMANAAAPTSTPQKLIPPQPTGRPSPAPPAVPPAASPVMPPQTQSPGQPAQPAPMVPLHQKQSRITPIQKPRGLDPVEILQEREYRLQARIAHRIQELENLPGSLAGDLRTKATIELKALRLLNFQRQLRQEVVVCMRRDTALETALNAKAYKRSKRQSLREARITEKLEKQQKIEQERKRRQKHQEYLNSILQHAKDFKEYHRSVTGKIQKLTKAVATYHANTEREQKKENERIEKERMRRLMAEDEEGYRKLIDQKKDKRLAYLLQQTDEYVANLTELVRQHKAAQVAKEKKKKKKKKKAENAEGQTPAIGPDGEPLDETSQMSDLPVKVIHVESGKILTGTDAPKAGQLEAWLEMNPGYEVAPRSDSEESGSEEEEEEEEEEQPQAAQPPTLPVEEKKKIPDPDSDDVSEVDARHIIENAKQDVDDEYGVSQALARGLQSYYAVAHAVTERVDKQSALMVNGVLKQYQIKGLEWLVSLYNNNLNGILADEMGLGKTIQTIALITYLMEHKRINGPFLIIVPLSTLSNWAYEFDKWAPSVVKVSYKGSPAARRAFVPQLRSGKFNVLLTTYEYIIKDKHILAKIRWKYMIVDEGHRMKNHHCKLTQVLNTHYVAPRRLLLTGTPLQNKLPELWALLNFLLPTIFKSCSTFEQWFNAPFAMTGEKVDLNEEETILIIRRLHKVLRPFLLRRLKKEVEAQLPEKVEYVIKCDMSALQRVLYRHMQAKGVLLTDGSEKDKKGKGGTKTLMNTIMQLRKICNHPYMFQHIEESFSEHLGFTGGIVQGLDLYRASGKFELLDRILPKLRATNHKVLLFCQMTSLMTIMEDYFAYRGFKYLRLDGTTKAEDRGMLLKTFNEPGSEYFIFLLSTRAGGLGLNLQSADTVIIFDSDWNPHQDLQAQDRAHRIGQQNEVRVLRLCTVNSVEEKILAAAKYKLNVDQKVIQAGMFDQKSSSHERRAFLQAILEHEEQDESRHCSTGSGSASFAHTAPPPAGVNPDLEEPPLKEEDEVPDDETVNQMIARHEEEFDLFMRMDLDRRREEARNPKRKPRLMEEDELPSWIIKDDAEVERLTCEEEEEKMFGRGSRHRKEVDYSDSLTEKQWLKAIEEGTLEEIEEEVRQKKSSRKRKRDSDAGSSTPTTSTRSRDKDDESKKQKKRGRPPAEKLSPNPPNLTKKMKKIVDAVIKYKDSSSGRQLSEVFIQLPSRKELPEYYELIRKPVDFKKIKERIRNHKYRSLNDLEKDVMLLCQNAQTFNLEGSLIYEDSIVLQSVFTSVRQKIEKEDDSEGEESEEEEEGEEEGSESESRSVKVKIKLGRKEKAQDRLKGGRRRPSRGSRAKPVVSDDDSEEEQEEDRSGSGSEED
T2 sequence (P51531 whole entry, species assumed): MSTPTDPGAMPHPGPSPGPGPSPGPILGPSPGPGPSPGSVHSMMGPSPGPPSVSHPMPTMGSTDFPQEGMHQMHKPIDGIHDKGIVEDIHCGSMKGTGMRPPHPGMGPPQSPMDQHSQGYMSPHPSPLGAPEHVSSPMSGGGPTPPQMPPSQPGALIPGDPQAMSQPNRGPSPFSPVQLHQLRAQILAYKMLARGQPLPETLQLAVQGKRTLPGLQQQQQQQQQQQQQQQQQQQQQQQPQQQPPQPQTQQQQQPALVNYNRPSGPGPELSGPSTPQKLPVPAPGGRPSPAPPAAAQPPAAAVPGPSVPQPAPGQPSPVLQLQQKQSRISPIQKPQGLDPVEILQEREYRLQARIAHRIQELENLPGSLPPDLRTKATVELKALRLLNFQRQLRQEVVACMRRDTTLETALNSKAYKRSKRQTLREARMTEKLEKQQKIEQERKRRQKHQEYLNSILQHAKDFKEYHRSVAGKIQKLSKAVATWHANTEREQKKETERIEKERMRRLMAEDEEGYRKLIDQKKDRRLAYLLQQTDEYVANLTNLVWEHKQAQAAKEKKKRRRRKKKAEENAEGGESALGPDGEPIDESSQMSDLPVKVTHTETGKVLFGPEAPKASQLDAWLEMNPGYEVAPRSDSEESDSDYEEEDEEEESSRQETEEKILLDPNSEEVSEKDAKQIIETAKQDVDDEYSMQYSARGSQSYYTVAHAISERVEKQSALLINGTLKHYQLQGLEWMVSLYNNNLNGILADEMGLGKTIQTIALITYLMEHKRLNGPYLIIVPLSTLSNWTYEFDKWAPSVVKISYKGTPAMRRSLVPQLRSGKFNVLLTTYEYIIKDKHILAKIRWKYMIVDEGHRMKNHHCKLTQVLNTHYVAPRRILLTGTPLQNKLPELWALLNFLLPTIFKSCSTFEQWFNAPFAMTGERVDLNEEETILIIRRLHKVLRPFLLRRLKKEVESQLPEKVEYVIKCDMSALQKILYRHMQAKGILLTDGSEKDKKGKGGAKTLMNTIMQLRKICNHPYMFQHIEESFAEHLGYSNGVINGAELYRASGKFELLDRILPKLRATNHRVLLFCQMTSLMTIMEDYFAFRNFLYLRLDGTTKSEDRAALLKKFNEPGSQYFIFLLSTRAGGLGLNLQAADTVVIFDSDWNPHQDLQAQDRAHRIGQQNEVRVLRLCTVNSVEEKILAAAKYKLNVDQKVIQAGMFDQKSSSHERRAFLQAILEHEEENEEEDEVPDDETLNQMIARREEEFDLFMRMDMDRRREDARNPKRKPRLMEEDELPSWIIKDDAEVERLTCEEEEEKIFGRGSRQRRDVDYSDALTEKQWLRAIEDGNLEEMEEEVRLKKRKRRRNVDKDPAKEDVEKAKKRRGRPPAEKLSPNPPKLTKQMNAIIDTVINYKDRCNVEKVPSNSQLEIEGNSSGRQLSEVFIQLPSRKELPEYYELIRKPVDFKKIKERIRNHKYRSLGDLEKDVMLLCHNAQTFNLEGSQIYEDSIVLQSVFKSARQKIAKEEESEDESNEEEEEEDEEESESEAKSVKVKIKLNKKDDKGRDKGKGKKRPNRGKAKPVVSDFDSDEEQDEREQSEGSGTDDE

SMILES	DC50 [1]	Dmax [1]	DC50 [2]	Dmax [2]	Fold Selectivity SMARCA4/2 [2]
O=C1CC[C@@H](c2ccc(OCC3CCN(CC4CCN(C(=O)C5(c6ccccc6)CCN(c6cnnc(-c7ccccc7O)c6)CC5)CC4)CC3)cc2)C(=O)N1 [Example 35, (3S)-3-[4-({1-[(1-{1-[6-(2-hydroxyphenyl)pyridazin-4-yl]-4-phenylpiperidine-4-carbonyl}piperidin-4-yl)methyl]piperidin-4-yl}methoxy)phenyl]piperidine-2,6-dione]	–	22.6%	80.5 nM	57%	124.30
O=C1CC[C@H](c2ccc(OCC3CCN(CC4CCN(C(=O)C5(c6ccccc6)CCN(c6cnnc(-c7ccccc7O)c6)CC5)CC4)CC3)cc2)C(=O)N1 [Example 36, (3R)-3-[4-({1-[(1-{1-[6-(2-hydroxyphenyl)pyridazin-4-yl]-4-phenylpiperidine-4-carbonyl}piperidin-4-yl)methyl]piperidin-4-yl}methoxy)phenyl]piperidine-2,6-dione]	–	27.4%	32.3 nM	63.9%	309.98
O=C1CC[C@H](c2ccc(N3CCC(CN4CCC(NC(=O)C5(c6ccccc6)CCN(c6cnnc(-c7ccccc7O)c6)CC5)CC45CCC5)CC3)cc2)C(=O)N1 (stereo partly drawn) [Example 39, N-{5-[(1-{4-[(3R)-2,6-dioxopiperidin-3-yl]phenyl}piperidin-4-yl)methyl]-5-azaspiro[3.5]nonan-8-yl}-1-[6-(2-hydroxyphenyl)pyridazin-4-yl]-4-phenylpiperidine-4-carboxamide]	79.3 nM	53.7%	3.09 nM	84.8%	25.67
O=C1CC[C@H](c2ccc(N3CCC(CN4CCCC4C4CCN(C(=O)C5(c6ccccc6)CCN(c6cnnc(-c7ccccc7O)c6)CC5)CC4)CC3)cc2)C(=O)N1 (stereo partly drawn) [Example 40, (3R)-3-[4-(4-{[2-(1-{1-[6-(2-hydroxyphenyl)pyridazin-4-yl]-4-phenylpiperidine-4-carbonyl}piperidin-4-yl)pyrrolidin-1-yl]methyl}piperidin-1-yl)phenyl]piperidine-2,6-dione]	–	13.8%	317 nM	50.3%	31.55
O=C1CC[C@H](c2ccc(N3CCC(CN4CCCC5C4CCCN5C(=O)C4(c5ccccc5)CCN(c5cnnc(-c6ccccc6O)c5)CC4)CC3)cc2)C(=O)N1 (stereo partly drawn) [Example 41, (3R)-3-(4-{4-[(5-{1-[6-(2-hydroxyphenyl)pyridazin-4-yl]-4-phenylpiperidine-4-carbonyl}-decahydro-1,5-naphthyridin-1-yl)methyl]piperidin-1-yl}phenyl)piperidine-2,6-dione]	–	41%	–	36.8%	1
O=C1CC[C@H](c2ccc(N3CCC(CN4CCCC4C4CCCCN4C(=O)C4(c5ccccc5)CCN(c5cnnc(-c6ccccc6O)c5)CC4)CC3)cc2)C(=O)N1 (stereo partly drawn) [Example 42, (3R)-3-[4-(4-{[2-(1-{1-[6-(2-hydroxyphenyl)pyridazin-4-yl]-4-phenylpiperidine-4-carbonyl}piperidin-2-yl)pyrrolidin-1-yl]methyl}piperidin-1-yl)phenyl]piperidine-2,6-dione]	–	9.32%	–	28.7%	1
O=C1CC[C@H](c2ccc(N3CCC(CN4CC5CCCC(C4)N(C(=O)C4(c6ccccc6)CCN(c6cnnc(-c7ccccc7O)c6)CC4)C5)CC3)cc2)C(=O)N1 (stereo partly drawn) [Example 45, (3R)-3-(4-{4-[(9-{1-[6-(2-hydroxyphenyl)pyridazin-4-yl]-4-phenylpiperidine-4-carbonyl}-3,9-diazabicyclo[3.3.2]decan-3-yl)methyl]piperidin-1-yl}phenyl)piperidine-2,6-dione]	–	9.72%	–	29.5%	1
O=C1CC[C@H](c2ccc(N3CCC(CN4CC5CC(NC(=O)C6(c7ccccc7)CCN(c7cnnc(-c8ccccc8O)c7)CC6)C4C5)CC3)cc2)C(=O)N1 (stereo partly drawn) [Example 47, N-{2-[(1-{4-[(3R)-2,6-dioxopiperidin-3-yl]phenyl}piperidin-4-yl)methyl]-2-azabicyclo[2.2.1]heptan-6-yl}-1-[6-(2-hydroxyphenyl)pyridazin-4-yl]-4-phenylpiperidine-4-carboxamide]	–	2.09%	–	7.19%	1
O=C1CC[C@H](c2ccc(N3CCC(CNC4CC5CCCC(C4)C5NC(=O)C4(c5ccccc5)CCN(c5cnnc(-c6ccccc6O)c5)CC4)CC3)cc2)C(=O)N1 (stereo partly drawn) [Example 49, N-(3-{[(1-{4-[(3R)-2,6-dioxopiperidin-3-yl]phenyl}piperidin-4-yl)methyl]amino}bicyclo[3.3.1]nonan-9-yl)-1-[6-(2-hydroxyphenyl)pyridazin-4-yl]-4-phenylpiperidine-4-carboxamide]	172 nM	59.8%	26.4 nM	76.9%	6.52
CC1CC2CN(CC3CCN(c4ccc([C@H]5CCC(=O)NC5=O)cc4)CC3)CC2N1C(=O)C1(c2ccccc2)CCN(c2cnnc(-c3ccccc3O)c2)CC1 (stereo partly drawn) [Example 50, (3R)-3-(4-{4-[(1-{1-[6-(2-hydroxyphenyl)pyridazin-4-yl]-4-phenylpiperidine-4-carbonyl}-2-methyl-hexahydropyrrolo[2,3-c]pyrrol-5-yl)methyl]piperidin-1-yl}phenyl)piperidine-2,6-dione]	–	20.2%	136 nM	53.4%	73.54

Other lines, results leading:

DC50 [1]	Dmax [1]	DC50 [2]	Dmax [2]	Fold Selectivity SMARCA4/2 [2]	SMILES
4370 nM	54.2%	13.9 nM	78%	314.31	O=C1CC[C@H](c2ccc(N3CCC(CN4CCC5(C4)CN(C(=O)C4(c6ccccc6)CCN(c6cnnc(-c7ccccc7O)c6)CC4)C5)CC3)cc2)C(=O)N1 [Example 17, (3R)-3-(4-{4-[(2-{1-[6-(2-hydroxyphenyl)pyridazin-4-yl]-4-phenylpiperidine-4-carbonyl}-2,6-diazaspiro[3.4]octan-6-yl)methyl]piperidin-1-yl}phenyl)piperidine-2,6-dione]
–	39.1%	78.5 nM	55.9%	127.44	CC1(C(=O)N2CC3(CN(CC4CCN(c5ccc([C@H]6CCC(=O)NC6=O)cc5)CC4)C3)C2)CCN(c2cnnc(-c3ccccc3O)c2)CC1 [Example 23, (3R)-3-(4-{4-[(6-{1-[6-(2-hydroxyphenyl)pyridazin-4-yl]-4-methylpiperidine-4-carbonyl}-2,6-diazaspiro[3.3]heptan-2-yl)methyl]piperidin-1-yl}phenyl)piperidine-2,6-dione]
–	31.7%	62.7 nM	56.5%	159.52	O=C1CC[C@H](c2ccc(N3CCC(CN4CC5(C4)CN(C(=O)C4(C6CC6)CCN(c6cnnc(-c7ccccc7O)c6)CC4)C5)CC3)cc2)C(=O)N1 [Example 24, (3R)-3-(4-{4-[(6-{4-cyclopropyl-1-[6-(2-hydroxyphenyl)pyridazin-4-yl]piperidine-4-carbonyl}-2,6-diazaspiro[3.3]heptan-2-yl)methyl]piperidin-1-yl}phenyl)piperidine-2,6-dione]
–	29.4%	80.7 nM	61.5%	123.86	O=C1CC[C@H](c2ccc(N3CCC(CN4CC(F)C5(C4)CN(C(=O)C4(c6ccccc6)CCN(c6cnnc(-c7ccccc7O)c6)CC4)C5)CC3)cc2)C(=O)N1 (stereo partly drawn) [Example 25, (3R)-3-(4-{4-[(8-fluoro-2-{1-[6-(2-hydroxyphenyl)pyridazin-4-yl]-4-phenylpiperidine-4-carbonyl}-2,6-diazaspiro[3.4]octan-6-yl)methyl]piperidin-1-yl}phenyl)piperidine-2,6-dione]
–	33.1%	–	47.5%	1	O=C1CC[C@H](c2ccc(N3CCC(CN4CCCC4C4CCCN(C(=O)C5(c6ccccc6)CCN(c6cnnc(-c7ccccc7O)c6)CC5)C4)CC3)cc2)C(=O)N1 (stereo partly drawn) [Example 37, (3R)-3-[4-(4-{[2-(1-{1-[6-(2-hydroxyphenyl)pyridazin-4-yl]-4-phenylpiperidine-4-carbonyl}piperidin-3-yl)pyrrolidin-1-yl]methyl}piperidin-1-yl)phenyl]piperidine-2,6-dione]
–	3.22%	–	44.8%	1	O=C1CC[C@H](c2ccc(N3CCC(CN4CC5CCN(C(=O)C6(c7ccccc7)CCN(c7cnnc(-c8ccccc8O)c7)CC6)CC54)CC3)cc2)C(=O)N1 (stereo partly drawn) [Example 38, (3R)-3-(4-{4-[(3-{1-[6-(2-hydroxyphenyl)pyridazin-4-yl]-4-phenylpiperidine-4-carbonyl}-3,8-diazabicyclo[4.2.0]octan-8-yl)methyl]piperidin-1-yl}phenyl)piperidine-2,6-dione]
–	45.1%	33.7 nM	63.3%	297.00	O=C1CC[C@H](c2ccc(N3CCC(CN4CCCN(C(=O)C5(c6ccccc6)CCN(c6cnnc(-c7ccccc7O)c6)CC5)CC4)CC3)cc2)C(=O)N1 [Example 46, (3R)-3-(4-{4-[(4-{1-[6-(2-hydroxyphenyl)pyridazin-4-yl]-4-phenylpiperidine-4-carbonyl}-1,4-diazepan-1-yl)methyl]piperidin-1-yl}phenyl)piperidine-2,6-dione]
–	16.3%	–	35.6%	1	O=C1CC[C@H](c2ccc(N3CCC(CN4CCC(C5CCN(C(=O)C6(c7ccccc7)CCN(c7cnnc(-c8ccccc8O)c7)CC6)CC5)C4)CC3)cc2)C(=O)N1 (stereo partly drawn) [Example 48, (3R)-3-[4-(4-{[3-(1-{1-[6-(2-hydroxyphenyl)pyridazin-4-yl]-4-phenylpiperidine-4-carbonyl}piperidin-4-yl)pyrrolidin-1-yl]methyl}piperidin-1-yl)phenyl]piperidine-2,6-dione]
